A short description of series [1]: Plasma protein binding by equilibrium dialysis. It counts as in vitro ADME. The settings on record: 37° C., 6 h (2 at 5 μM), read-out: free fraction in plasma. The method, then:
Plasma and brain binding. Plasma protein binding was determined by equilibrium dialysis using a Thermo Scientific™ RED Device per the manufacturer's protocol. Each sample was prepared by addition of 2 into 100 μL plasma with final concentration of 5 μM (0.1% (v/v) DMSO). 1×PBS was used as dialysis buffer and was added into the buffer chamber. The plate was incubated with shaking at 37° C. for 6 h. The concentration of 2 in the plasma and buffer compartments was determined as described in Quantitation of 2 in Mouse Plasma and Brain. The free fraction was calculated as [buffer]/[plasma].

The test system of series [2] is DDPAC I17T MAPT mini-gene (exon 10 splicing). In words: 4R/3R MAPT mRNA by RT-qPCR, HeLa cells transfected with DDPAC I17T mini-gene. It counts as cell-based. The settings on record: ASO 0.5 μM. The method, then:
(§1) RNA Isolation and Real-Time Quantitative PCR (RT-qPCR). HeLa cells were treated as described in the Luciferase Reporter assay to Study Exon 10 Alternative Splicing. LAN5 cells were seeded in 12-well plates at 0.2×10^6 cells per well, treated with compound or ASO, and incubated for 48 h. Compound stocks prepared in DMSO and ASO stocks prepared in water were diluted in growth medium and added to cells. Total RNA was extracted from cells and analyzed via RT-qPCR to determine levels of 3R and 4R tau mRNA. In brief, the cells were washed with 1×DPBS and then lysed in the well using 300 μL of Lysis Buffer provided in a Quick-RNA MiniPrep kit (Zymo Research), which was used to extract total RNA per the manufacturer's protocol including the on-column DNase I digestion. The concentration of total RNA was measured by NanoDrop 2000 (Thermo Fisher Scientific). Only samples with OD260/OD280>1.8 were carried forward for analysis. Reverse transcription (RT) was carried out on 200 ng of total RNA using a qScript cDNA synthesis kit (QuantaBio) in a total volume of 10 μL according to the manufacturer's protocol. An Applied Biosystems QS5 384-well PCR system was used to complete qPCR reactions with Power SYBR Green Master Mix (Life Technologies), 600 nM each primer (Table S3), 20 ng of cDNA (1 μL of the RT reaction), in a total volume of 33 μL. Technical triplicates (10 μL each) were aliquoted into 384-well qPCR plates (Applied biosystems, 4483285). Subsequent qPCR analysis was performed using an Applied Biosystems QS5 384-well PCR system (software v.1.3.0). 4R/3R ratio were analyzed using ΔΔCt method using Equation 2: […]
(§2) where ΔCt 4R or ΔCt 3R is the difference between the Ct values for the 4R or 3R MAPT mRNA and a housekeeping gene (18S rRNA) in total RNA from cells.
On the technique in general: Real-time PCR tracks product formation cycle by cycle.

Series [3] deals with MAPT exon 10 splicing in primary neurons from htau mice. The series is described as follows: 4R/3R MAPT mRNA by RT-qPCR in primary neurons from htau mice. The settings on record: 48 h. It counts as cell-based, human MAPT in htau transgenic mouse neurons. The protocol:
as §1
Isolation and Treatment of Primary Neurons from Humanized tau (hTau) Transgenic Mice. All animal studies were completed as approved by the Scripps Florida Institutional Animal Care and Use Committee. […]

Series [4] has as its system WT I17T MAPT mini-gene (exon 10 splicing). The series is described as follows: 4R/3R MAPT mRNA by RT-qPCR, HeLa cells transfected with WT I17T mini-gene. The settings on record: ASO 0.5 μM. It counts as cell-based. The protocol:
as §1, §2

In a further series the test system is LAN5 transcriptome. In words: RNA-seq transcriptome-wide selectivity in LAN5 cells. It counts as cell-based, human. The method, then:
RNA-Seq. LAN5 cells in 12-well plate (~60% confluency) were treated with 2 (1.5 μM), 0.1% (v/v) DMSO (vehicle), 4R-to-3R tau ASO (0.5 μM), or scrambled ASO (0.5 μM) for 48 h. Total RNA was extracted using an RNeasy Mini Kit (Qiagen) per the manufacturer's protocol. Next, rRNA was depleted using NEBNext rRNA depletion modules (E6310L, New England Biosciences) and prepared with NEBNext Ultra II Dir RNA Lib Prep Kit (E7760S, New England Biosciences) according to the manufacturer's protocol. The prepared libraries were processed with NextSeq 500/550 High Output Kit v2.5 (Illumina, 20024907) per the manufacturer's protocol and then sequenced on a NextSeq 500. After sequencing, the BCL files were converted to FASTQ files using basemount/0.12.8.1516 and bcl2fastq/2.17.1.14.^33 The sequencing depth was over 82 million for each sample.
FastQC^34 and RSeQC^35 were used to determine the quality of reads and any overrepresentation of sequences. HISAT2^36 was used to map the reads to the reference human genome (hg19), and the output SAM files were converted to BAM files and sorted by index. Kallisto^37 and NCBI reference sequences (RefSeq)^38 were used for gene quantification to calculate transcripts per million (TPM). Differentially expressed genes were detected with Sleuth^39 and determined by a multiple test corrected p-value<0.05. Splicing event PSI values were quantitated using MISO.^40

For series [5], the system named is MAPT exon 10 splicing in LAN5 cells. In words: 4R/3R endogenous MAPT mRNA by RT-qPCR in LAN5 neuroblastoma cells. It counts as cell-based. The protocol: as §1, §2

Two molecules from patent US20260308158A1, “TARGETING RNAS ASSOCIATED WITH TAUOPATHIES WITH SMALL MOLECULES” (University of Florida Research Foundation, Incorporated, priority 2023, published 2026) can be followed below.

Consider `NC(=O)N1c2ccccc2C=Cc2ccccc21` [Carbamazepine, reference compound], for which the fraction unbound at 6 h in series [1] was 0.377 ± 0.042.

For “tau ASO: Vivo-Morpholino antisense oligonucleotide targeting the MAPT exon-10-intron junction hairpin, 5′-TGAAGGTACTCACACTGCCGC-3′ (SEQ ID NO: 1) (all phosphorodiamidate morpholino (PMO); Vivo-Morpholino: morpholino with attached delivery moiety, further chemistry not fully specified) [reference compound]”, the “effect on 4R/3R ratio” value in series [2] and in series [4] was “altered the 4R/3R ratio” throughout. Moreover, the “4R/3R ratio and PSI10” value in series [3] is “dose dependent reduction”. Moreover, the “expression of MAPT gene” value in the series with LAN5 transcriptome (2 at 1.5 μM or ASO 0.5 μM) is on record as “Neither 2 nor the ASO altered the expression of MAPT gene”. Besides, the “alternative splicing of MAPT exons (exon 10)” value in the series on LAN5 transcriptome (2 at 1.5 μM or tau ASO 0.5 μM) is reported as “only one significantly reduced”. For the same molecule, the “genes unchanged, percent” value in the series with LAN5 transcriptome (tau ASO 0.5 μM, 48 h) is on record as 99.97%. In addition, the “reduction of 4R/3R MAPT ratio” value in series [5] (ASO 0.5 μM, LAN5, 48 h) is on record as ~ 82%. Also, the “PSI10 in all cell lines” value in series [5] (ASO, all cell lines of FIGS. 12A-12C (LAN5, HeLa mini-genes, htau primary neurons)) was “also downregulated in all cell lines”.
